Legend:
brain aromatase = experiment: PET studies in baboons (brain imaging); assay type: in vivo, baboon
Procedure: PET Studies in Baboons: All animal studies were reviewed and approved by the Brookhaven Institutional Animal Care and Use Committee. […] Baboons were anesthetized with ketamine (10 mg/kg) and then intubated and ventilated with a mixture of isoflurane (Forane, 1-4%) and nitrous oxide (1500 mL/min) and oxygen (800 mL/min). Animals were transported to and from the PET facility in a temperature controlled transfer cage and a member of the staff attended them while they recovered from anesthesia. Catheters were inserted in a popliteal artery and radial arm vein for arterial sampling a radiotracer injection respectively. Dynamic PET imaging was carried out on a Siemen's HR+ high resolution, whole body PET scanner (4.5×4.5×4.8 mm at center of field of view) in 3D acquisition mode, 63 planes. A transmission scan was obtained with a ^68Ge rotating rod source before the emission scan to correct for attenuation before each radiotracer injection. […] Dynamic scanning was carried out for 90 minutes with the following time frames (1×10 sec; 12×5 sec; 1×20 sec; 1×30 sec; 8×60 sec; 4×300 sec; 8×450 sec). […] During the PET scan, baboons were monitored for heart rate, respiration rate, PO2 and temperature. Animals were allowed 4 weeks between studies to recover from anesthesia and blood sampling.
Image Analysis: Time frames were summed over the 90 minute experimental period. Regions of interest were placed over the amygdala, the preoptic area, frontal cortex, cerebellum and thalamus on the summed image and then projected onto the dynamic images to obtain time activity curves. Regions occurring bilaterally were averaged. Carbon-11 concentration in each region of interest was divided by the injected dose to obtain the % dose/cc. The summed PET images from one baboon was co-registered with a 3D MR image of the same animal using PMOD (PMOD Technologies, Ltd.).

[1] = Plasma analysis for fraction of 11C-isomers (unchanged parent tracer by HPLC); assay type: in vivo; conditions: baboon plasma
Procedure: Plasma analysis for fraction of ^11C-isomers: Plasma samples at 1, 5, 10, 30 and 60 min were analyzed by HPLC to determine the percent of residual parent tracer. Plasma samples from selected time points were added to 300 μL acetonitrile containing an appropriate amount of standard, then subjected to cell disruption using a Polytron (Brinkmann Instruments), centrifuged for 4 minutes and decanted into 300 μL water. HPLC conditions were 60:40 0.1 M ammonium formate:acetonitrile, Waters μBondapak column (3.9×300 mm), flow 1.3 mL/min, UV detection at 254 nm. Supernatants were injected onto the column, reserving a measured amount to determine recovery of injected activity from the column. […] Five fractions were collected from each injection, 3 before the parent peak, the parent peak, and finally the tail of the parent peak. The percent unchanged tracer was determined by dividing the sum of the last 2 peaks by the sum of all HPLC fractions.

brain aromatase enzymes = conditions: Kil et al. (2008); cited from earlier work

## [11CH3]n1nc2ccc(C(c3ccc(Cl)cc3)n3cncn3)cc2n1 (stereo not drawn) [N-2 isomer]
Brain aromatase; baboon brain
  distribution to aromatase-rich brain regions: no specific distribution to aromatase-rich brain regions
Brain aromatase; baboon brain, images summed 15-90 min after injection, FIG. 3
  PET image uptake in amygdala and preoptic area: no specific uptake in amygdala and preoptic area
[1]
  appearance of labeled metabolites in plasma: very rapid appearance of labeled metabolites
  disappearance of parent labeled compound from plasma: rapid rate of disappearance of the parent labeled compound from plasma

## N#Cc1ccc(C(c2ccc(C#N)cc2)n2cncn2)cc1 [[^11C]letrozole]
Brain aromatase enzymes
  blocking of uptake by pretreatment with unlabeled letrozole: failed to block uptake
  brain uptake and clearance: rapidly taken up in the brain and was then rapidly cleared

## N#Cc1ccc(C(c2ccc(C#N)cc2)n2cncn2)cc1 [letrozole, reference compound]
Brain aromatase; blocking dose 0.1 mg/kg, 5 min prior, baboon
  effect of pretreatment on [N-methyl-11C]vorozole accumulation in brain: reduced [N-methyl-^11C]vorozole accumulation in all brain regions examined

Reference: patent US8802053B2 (Brookhaven Science Associates, LLC, priority 2009, dated 2014)
